In brackets after ≈: the same amount, converted by molar mass. Read-outs that look alike come from different tables or passages of the source.
Legend:
[1] = test system: Serr. marcescens; experiment: MIC by Steers' agar dilution method; details: Serratia marcescens
[2] = test system: E. coli; experiment: MIC by Steers' agar dilution method; type: cell-based; details: Escherichia coli

Cn1nnnc1SCC1=C(C(=O)O)N2C(=O)[C@@H](NC(=O)[C@H](O)c3ccccc3)[C@H]2SC1 [Cefamandole, cefamandole, reference compound]
MIC ([1]; A20019, MHA, Table 1): 100 µg/mL (≈ 216 µM) | MIC ([1]; MHA, Example 10): 100 µg/mL (≈ 216 µM) | MIC ([1]; Sm-1 A20019 (β-lactamase), HIA, Table 4): 50 µg/mL (≈ 108 µM) | MIC ([1]; Sm-1 A20019 (β-lactamase), MHA, Table 4): 100 µg/mL (≈ 216 µM) | MIC ([1]; Sm-1 A20019 (β-lactamase), NA, Table 4): 50 µg/mL (≈ 108 µM) | MIC ([1]; Sm-1 A20019, MHA, Table 3): 25 µg/mL (≈ 54.1 µM) | MIC ([1]; Sm-2 A20335, MHA, Table 3): 12.5 µg/mL (≈ 27 µM) | MIC ([1]; Sm-3 A20336, HIA, Table 4): 50 µg/mL (≈ 108 µM) | MIC ([1]; Sm-3 A20336, MHA, Table 3): 12.5 µg/mL (≈ 27 µM) | MIC ([1]; Sm-3 A20336, MHA, Table 4): 100 µg/mL (≈ 216 µM) | MIC ([1]; Sm-3 A20336, NA, Table 4): 50 µg/mL (≈ 108 µM) | MIC ([1]; Sm-4 A20442, MHA, Table 3): 12.5 µg/mL (≈ 27 µM) | MIC ([1]; Sm-5 A20222, MHA, Table 3): 12.5 µg/mL (≈ 27 µM) | MIC ([1]; Sm-6 A20460, MHA, Table 3): 12.5 µg/mL (≈ 27 µM) | MIC ([1]; Sm-9 A20333, MHA, Table 3): 50 µg/mL (≈ 108 µM) | MIC ([1]; Sm-10 A20334, MHA, Table 3): 50 µg/mL (≈ 108 µM) | MIC ([1]; Sm-11 A20459, MHA, Table 3): 25 µg/mL (≈ 54.1 µM) | MIC ([1]; Sm-12 A20461, MHA, Table 3): 50 µg/mL (≈ 108 µM) | MIC ([2]; A9660, MHA, Table 1, read-out: MIC): 0.1 µg/mL (≈ 0.216 µM) | MIC ([2]; A15147, MHA, Table 1, read-out: MIC): 0.4 µg/mL (≈ 0.865 µM) | MIC ([2]; A15810, MHA, Table 1, read-out: MIC): 0.4 µg/mL (≈ 0.865 µM) | MIC ([2]; ATCC8739, ATCC 8739, MHA, Example 10): 3.1 µg/mL (≈ 6.7 µM) | MIC ([2]; ATCC8739, ATCC 8739, MHA, Table 1, read-out: MIC): 0.05 µg/mL (≈ 0.108 µM) | MIC ([2]; ATCC8739, Ec-15 ATCC 8739, HIA, Table 4, read-out: MIC): 0.1 µg/mL (≈ 0.216 µM) | MIC ([2]; ATCC8739, Ec-15 ATCC 8739, MHA, Table 3, read-out: MIC): 0.1 µg/mL (≈ 0.216 µM) | MIC ([2]; ATCC8739, Ec-15 ATCC 8739, MHA, Table 4, read-out: MIC): 0.1 µg/mL (≈ 0.216 µM) | MIC ([2]; ATCC8739, Ec-15 ATCC 8739, NA, Table 4, read-out: MIC): 0.1 µg/mL (≈ 0.216 µM) | MIC ([2]; BX-1373, MHA, Example 10, read-out: MIC): 3.1 µg/mL (≈ 6.7 µM) | MIC ([2]; BX-1373, MHA, Table 1, read-out: MIC): 0.8 µg/mL (≈ 1.73 µM) | MIC ([2]; Ec-1 NIHJ, HIA, Table 4, read-out: MIC): 0.1 µg/mL (≈ 0.216 µM) | MIC ([2]; Ec-1 NIHJ, MHA, Table 3, read-out: MIC): 0.1 µg/mL (≈ 0.216 µM) | MIC ([2]; Ec-1 NIHJ, MHA, Table 4, read-out: MIC): 0.05 µg/mL (≈ 0.108 µM) | MIC ([2]; Ec-1 NIHJ, NA, Table 4, read-out: MIC): 0.1 µg/mL (≈ 0.216 µM) | MIC ([2]; Ec-3 Juhl A15119, HIA, Table 4, read-out: MIC): 0.4 µg/mL (≈ 0.865 µM) | MIC ([2]; Ec-3 Juhl A15119, MHA, Table 3, read-out: MIC): 0.8 µg/mL (≈ 1.73 µM) | MIC ([2]; Ec-3 Juhl A15119, MHA, Table 4, read-out: MIC): 0.4 µg/mL (≈ 0.865 µM) | MIC ([2]; Ec-3 Juhl A15119, NA, Table 4, read-out: MIC): 0.2 µg/mL (≈ 0.432 µM) | MIC ([2]; Ec-4 A15169, MHA, Table 3, read-out: MIC): 6.3 µg/mL (≈ 13.6 µM) | MIC ([2]; Ec-5 K-12, ML-1630 A20363, MHA, Table 3, read-out: MIC): 0.8 µg/mL (≈ 1.73 µM) | MIC ([2]; Ec-11 A20366 (β-lactamase), HIA, Table 4, read-out: MIC): 25 µg/mL (≈ 54.1 µM) | MIC ([2]; Ec-11 A20366 (β-lactamase), MHA, Table 4, read-out: MIC): 50 µg/mL (≈ 108 µM) | MIC ([2]; Ec-11 A20366 (β-lactamase), NA, Table 4, read-out: MIC): 50 µg/mL (≈ 108 µM) | MIC ([2]; Ec-11 A20366, MHA, Table 3, read-out: MIC): 25 µg/mL (≈ 54.1 µM) | MIC ([2]; Ec-34 A9660, MHA, Table 3, read-out: MIC): 0.1 µg/mL (≈ 0.216 µM) | MIC ([2]; Ec-35 A9435, MHA, Table 3, read-out: MIC): 0.8 µg/mL (≈ 1.73 µM) | MIC ([2]; Ec-36 A15147 (β-lactamase), HIA, Table 4, read-out: MIC): 3.1 µg/mL (≈ 6.7 µM) | MIC ([2]; Ec-36 A15147 (β-lactamase), MHA, Table 4, read-out: MIC): 3.1 µg/mL (≈ 6.7 µM) | MIC ([2]; Ec-36 A15147 (β-lactamase), NA, Table 4, read-out: MIC): 1.6 µg/mL (≈ 3.46 µM) | MIC ([2]; Ec-36 A15147, MHA, Table 3, read-out: MIC): 1.6 µg/mL (≈ 3.46 µM) | MIC ([2]; Ec-40 A20361, MHA, Table 3, read-out: MIC): 0.8 µg/mL (≈ 1.73 µM) | MIC ([2]; Ec-44 A9535, MHA, Table 3, read-out: MIC): 0.1 µg/mL (≈ 0.216 µM) | MIC ([2]; Ec-45 A15148, MHA, Table 3, read-out: MIC): 1.6 µg/mL (≈ 3.46 µM) | MIC ([2]; Ec-46 A15164 (β-lactamase), HIA, Table 4, read-out: MIC): 12.5 µg/mL (≈ 27 µM) | MIC ([2]; Ec-46 A15164 (β-lactamase), MHA, Table 4, read-out: MIC): 12.5 µg/mL (≈ 27 µM) | MIC ([2]; Ec-46 A15164 (β-lactamase), NA, Table 4, read-out: MIC): 25 µg/mL (≈ 54.1 µM) | MIC ([2]; Ec-46 A15164, MHA, Table 3, read-out: MIC): 12.5 µg/mL (≈ 27 µM) | MIC ([2]; Ec-47 A15170, MHA, Table 3, read-out: MIC): 50 µg/mL (≈ 108 µM) | MIC ([2]; Ec-49 A20107, MHA, Table 3, read-out: MIC): 0.2 µg/mL (≈ 0.432 µM) | MIC ([2]; Ec-50 A20109, MHA, Table 3, read-out: MIC): 0.8 µg/mL (≈ 1.73 µM) | MIC ([2]; Ec-51 A20343 (β-lactamase), HIA, Table 4, read-out: MIC): 25 µg/mL (≈ 54.1 µM) | MIC ([2]; Ec-51 A20343 (β-lactamase), MHA, Table 4, read-out: MIC): 25 µg/mL (≈ 54.1 µM) | MIC ([2]; Ec-51 A20343 (β-lactamase), NA, Table 4, read-out: MIC): 12.5 µg/mL (≈ 27 µM) | MIC ([2]; Ec-51 A20343, MHA, Table 3, read-out: MIC): 12.5 µg/mL (≈ 27 µM) | MIC ([2]; Ec-56 A20365, MHA, Table 3, read-out: MIC): 12.5 µg/mL (≈ 27 µM) | MIC ([2]; Ec-58 A9675, MHA, Table 3, read-out: MIC): 1.6 µg/mL (≈ 3.46 µM) | MIC ([2]; Ec-59 A20766, MHA, Table 3, read-out: MIC): 0.8 µg/mL (≈ 1.73 µM) | MIC ([2]; Ec-62 A20895, MHA, Table 3, read-out: MIC): 0.8 µg/mL (≈ 1.73 µM) | MIC ([2]; Juhl A15119, MHA, Table 1, read-out: MIC): 0.4 µg/mL (≈ 0.865 µM)

Reference: patent US4112228A, “7-(D-α-Hydroxy-2-arylacetamido)-3-(2-carboxyalkyl-2,3-dihydro-s-tri azolo-[4,3-b]pyridazin-3-on-6-ylthiomethyl)-3-cephem-4-carboxylic acids and derivatives” (priority 1977, dated 1978)
